Ends that are not written are not given here.
Assays:
E. coli (TOP10) = assay: Broth microdilution antimicrobial susceptibility assay; type: cell-based, Escherichia coli
Summary of the method: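 Bacteria were grown on MHA for 24 h, subcultured in MHB for 6 h at 37 °C and diluted to 10^6 CFU/mL. Compounds were serially diluted from 50 to 0.1 μM, inoculated and incubated for 24 h at 37 °C. MIC was the lowest concentration with no visible turbidity.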

[1] = test system: E. faecium Z906 (VAN, TEI, LNZ); settings: E. faecium / Z906 / VAN, TEI, LNZ / Prot. c; Prot. c
E. faecalis JH2-2 (WT) = settings: E. faecalis / JH2-2 / WT / Prot. b; Prot. b
[2] = test system: S. aureus ATCC 29213 (Clinical); settings: S. aureus / ATCC 29213 / Clinical / Prot. c; Prot. c
[3] = test system: E. faecalis ATCC 700802 (VAN); settings: E. faecalis / ATCC 700802 / VAN / Prot. d; Prot. d
[4] = test system: P. aeruginosa K11 (IMI, MER, CTZ, PIT); settings: P. aeruginosa / K11 / IMI, MER, CTZ, PIT / Prot. c; Prot. c
P. aeruginosa PA14 (WT) = settings: P. aeruginosa / PA14 / WT / Prot. d; Prot. d
P. aeruginosa PA01 (WT) = settings: P. aeruginosa / PA01 / WT / Prot. d; Prot. d
[5] = test system: S. aureus ATCC BAA-1556 (MET); settings: S. aureus / ATCC BAA-1556 / MET / Prot. d; Prot. d
[6] = test system: E. faecium ATCC 700221 (VAN, TEI); settings: E. faecium / ATCC 700221 / VAN, TEI / Prot. d; Prot. d
[7] = test system: HL-60, K-562, MCF-7 and HCT-116 cells; assay: Viability by flow cytometry DiOC6/7AAD staining, effect of pH and media; type: cell-based, human; settings: 10 μM, 1 h; RPMI, DMEM, PBS at pH 8, 7, 6 and ∼7.6
Method: To investigate the effect of pH and media on anticancer activity, we further tested the peptides against four cell lines, HL-60, K-562, and MCF-7, and the colon cancer cells HCT-116, cultured in three different media, namely, RPMI, DMEM, and PBS, each adjusted to three different pH values 8, 7, and 6, and additionally one case without pH adjustment (∼7.6) (Figure 6c). To avoid pH changes due to the natural buffering of the CO2-bicarbonate system used in cell culture, the peptides were tested at a concentration of 10 μM for only 1 h, as the cell lysis effect was already apparent within 30 min of exposure (Figure S9d).
Effects of pH and culture medium on the anticancer activity of peptides against acute myeloid leukemia HL-60, chronic myeloid leukemia K-562, breast adenocarcinoma MCF-7, and colon cancer cells HCT-116 cultured in three different media RPMI (#21875034, Gibco), DMEM (#LM-D1110/500, Biosera), and PBS adjusted to three different pH values 8, 7, and 6, and a medium without pH adjustment (∼7.6), were tested using flow cytometry DiOC6/7AAD (3,3-dihexyloxacarbocyanine iodide/7-amino-actinomycin D) staining assay, as described previously.[102] Media pH was adjusted twice, i.e., 1 day before the experiment and immediately before the experiment. Medium was supplemented with 10% heat-inactivated FBS, glutamine, sodium pyruvate, and antibiotics (100 U/mL penicillin and 100 μg/mL streptomycin). […] To determine cell viability, cells were incubated with DiOC6 (Thermo Fisher Scientific) and 7AAD (Thermo Fisher Scientific) for 15 min at 37 °C and cell viability was measured using a BriCyte E6 flow cytometer (Mindray); viable cells were considered as DiOC6-positive and 7AAD-negative.
The effect of pH on peptide activity in cancer cells was evaluated by the multiway ANOVA followed by Tukey post hoc test. Regarding the comparison of the effect of the medium, we analyzed the data from Figure 6c by comparing RPMI medium and DMEM of the same pH, and statistical significance was assessed using the multiway ANOVA followed by Tukey post hoc test. […]

OVCAR-3 = assay: cells; type: cell-based, human; settings: 72 h
Method: The CellTiter-Glo luminescent cell viability assay examining the impact of peptides on 22 different human cell lines was purchased from Reaction Biology Europe GmbH (Germany). Cells were cultured in different media (Table S1), seeded into a flat-bottom 96-well plate, and incubated at 37 °C. After overnight incubation, test compounds were added with 1% PBS/0.3% Tween 20 and the reference compound bortezomib was added with 0.1% DMSO. Negative controls were solvents alone, and positive control was 10 μM staurosporine. After 72 h of incubation at 37 °C, 5 or 10% CO2 (dependent on the medium), and 1 h equilibration at room temperature, well plates were treated with CellTiter-Glo reagent (Promega) for an hour and luminescence was measured using a luminometer.
Table S1. In vitro activity against 22 different human cancer cell lines.
Sr. Cancer Activity (in M)
no. Cell line type Culture medium
The effect of investigated compounds on the proliferation of 22 different human cell lines is
Twenty of these 22 cell lines represent specific cancer types and 2 were non-cancerous. Peptide
Anticancer drug bortezomib was used as the […]

Question: How did the “pH dependence of antimicrobial activity” value (E. coli (TOP10); pH 8 and 6) turn out when “KKKKLKKILKKLFQFINQLDNQLQDIKKKK-NH2 [LP18]” was run?
Answer: independent of pH

Question: What about the MIC [1] of the same substance?
Answer: 16 µM

Question: What about the MIC (E. faecalis JH2-2 (WT)) of the same substance?
Answer: > 32 µM

Question: What about the MIC [2] of the same substance?
Answer: > 32 µM

Question: What about the MIC [3] of the same substance?
Answer: > 60 µM

Question: And the MIC [4]?
Answer: 16 µM

Question: What about the MIC (P. aeruginosa PA14 (WT)) of the same substance?
Answer: 3.1 µM

Question: What about the MIC (P. aeruginosa PA01 (WT)) of the same substance?
Answer: 3.1 µM

Question: And the MIC [5]?
Answer: > 60 µM

Question: What about the MIC [6] of the same substance?
Answer: > 60 µM

Question: “KKKKLKKILKKLFQFINQLDNQLQDIKQNK-NH2 [LP1]” was tested. Which “Activity against cancer cells (cell viability) as a function of pH and medium” value [7] did it give?
Answer: pH-dependent activity

Question: What about the IC50 (OVCAR-3) of the same substance?
Answer: 4.9 µM

Question: What about the MIC [1] of the same substance?
Answer: > 32 µM

Question: What about the MIC (E. faecalis JH2-2 (WT)) of the same substance?
Answer: > 32 µM

Question: And the MIC [2]?
Answer: > 32 µM

Question: What about the MIC [3] of the same substance?
Answer: > 60 µM

Question: And the MIC [4]?
Answer: > 32 µM

Question: And the MIC (P. aeruginosa PA14 (WT))?
Answer: 3.1 µM

Question: And the MIC (P. aeruginosa PA01 (WT))?
Answer: 3.1 µM

Question: What about the MIC [5] of the same substance?
Answer: > 60 µM

Question: And the MIC [6]?
Answer: 12.5 µM

Question: For “H-HHHHLKKILKKLFQFINQLDNQLQDIHHHH-OH [LP40]”, which MIC (E. coli (TOP10); 24 h, MHB) is on record?
Answer: > 50 µM

Question: And the “MIC against E. coli (TOP10)” value (E. coli (TOP10); TOP10, 24 h, pH 6)?
Answer: 0.4 µM

Question: And the “Activity against cancer cells (cell viability) as a function of pH and medium” value [7]?
Answer: pH-dependent activity

Question: What about the IC50 (OVCAR-3) of the same substance?
Answer: 9 µM

— paper PMC11345766, “Computational Design of Pore-Forming Peptides with Potent Antimicrobial and Anticancer Activities” (Journal of Medicinal Chemistry, 2024)
